What was measured:
[1] = target: T1, Aurora kinase A (Homo sapiens) (UniProt O14965); test: Inhibition of human full length AurA expressed in baculovirus assessed as substrate phosphorylation using fluorescence-labelled peptides as substrate at 0.2 uM after 90 mins by microfluidic peptide phosphorylation assay
T1 sequence (whole entry): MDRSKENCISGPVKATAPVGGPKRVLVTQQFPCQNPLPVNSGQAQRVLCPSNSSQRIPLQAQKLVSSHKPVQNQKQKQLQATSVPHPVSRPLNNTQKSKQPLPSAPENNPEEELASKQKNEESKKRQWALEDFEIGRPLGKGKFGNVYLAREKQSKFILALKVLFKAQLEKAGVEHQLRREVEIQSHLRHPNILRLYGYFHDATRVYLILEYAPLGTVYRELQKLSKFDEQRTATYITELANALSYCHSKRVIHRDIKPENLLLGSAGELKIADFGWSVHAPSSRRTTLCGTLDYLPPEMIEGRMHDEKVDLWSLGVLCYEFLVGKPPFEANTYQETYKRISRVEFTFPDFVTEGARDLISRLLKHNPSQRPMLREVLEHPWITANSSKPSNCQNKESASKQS

[2] = target: T2, Serine/threonine-protein kinase Chk1 (Homo sapiens) (UniProt O14757); test: Inhibition of human full length CHK1 expressed in baculovirus assessed as substrate phosphorylation using fluorescence-labelled peptides as substrate at 1000 uM after 90 mins by microfluidic peptide phosphorylation assay
T2 sequence (whole entry): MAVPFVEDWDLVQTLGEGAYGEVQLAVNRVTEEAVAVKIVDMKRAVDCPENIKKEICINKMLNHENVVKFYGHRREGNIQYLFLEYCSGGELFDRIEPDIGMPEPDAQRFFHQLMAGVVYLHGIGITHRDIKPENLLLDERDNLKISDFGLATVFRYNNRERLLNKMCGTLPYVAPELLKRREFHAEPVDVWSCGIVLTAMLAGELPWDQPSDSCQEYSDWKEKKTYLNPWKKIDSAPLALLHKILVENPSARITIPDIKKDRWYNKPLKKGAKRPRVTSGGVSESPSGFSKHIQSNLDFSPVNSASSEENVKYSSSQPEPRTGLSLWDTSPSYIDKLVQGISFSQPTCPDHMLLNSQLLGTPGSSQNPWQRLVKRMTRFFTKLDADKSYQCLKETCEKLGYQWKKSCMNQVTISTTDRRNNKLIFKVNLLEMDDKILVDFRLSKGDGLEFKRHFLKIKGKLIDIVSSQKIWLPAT

[3] = target: Serine/threonine-protein kinase PAK 2 (Homo sapiens) (UniProt Q13177); test: Inhibition of human truncated PAK2 expressed in Escherichia coli cell assessed as substrate phosphorylation using fluorescence-labelled peptides as substrate at 1000 uM after 90 mins by microfluidic peptide phosphorylation assay
[4] = target: T3, Cytoplasmic tyrosine-protein kinase BMX (Homo sapiens) (UniProt P51813); test: Inhibition of human full length BMX expressed in baculovirus assessed as substrate phosphorylation using fluorescence-labelled peptides as substrate at 0.06 uM after 90 mins by microfluidic peptide phosphorylation assay
T3 sequence (whole entry): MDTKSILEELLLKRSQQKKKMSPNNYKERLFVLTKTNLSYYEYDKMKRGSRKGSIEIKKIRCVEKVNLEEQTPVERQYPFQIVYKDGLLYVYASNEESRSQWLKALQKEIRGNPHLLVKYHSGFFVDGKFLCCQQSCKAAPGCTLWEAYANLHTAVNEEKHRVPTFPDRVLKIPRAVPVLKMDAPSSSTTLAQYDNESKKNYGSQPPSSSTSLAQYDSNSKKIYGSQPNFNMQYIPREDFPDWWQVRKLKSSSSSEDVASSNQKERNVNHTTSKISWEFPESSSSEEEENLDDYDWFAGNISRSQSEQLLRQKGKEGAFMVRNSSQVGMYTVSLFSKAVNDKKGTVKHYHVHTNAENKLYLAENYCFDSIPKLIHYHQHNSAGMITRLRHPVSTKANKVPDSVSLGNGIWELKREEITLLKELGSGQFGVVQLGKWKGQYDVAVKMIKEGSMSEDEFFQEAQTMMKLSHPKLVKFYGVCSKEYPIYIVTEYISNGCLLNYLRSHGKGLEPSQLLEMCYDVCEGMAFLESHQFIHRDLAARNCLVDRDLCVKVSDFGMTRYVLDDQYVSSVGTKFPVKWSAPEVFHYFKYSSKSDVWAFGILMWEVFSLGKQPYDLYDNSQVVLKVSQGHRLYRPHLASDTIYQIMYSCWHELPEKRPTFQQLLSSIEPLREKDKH

[5] = target: Mitogen-activated protein kinase kinase kinase kinase 4 (Homo sapiens) (UniProt O95819); test: Inhibition of human HGK catalytic domain expressed in baculovirus assessed as substrate phosphorylation using fluorescence-labelled peptides as substrate at 0.06 uM after 90 mins by microfluidic peptide phosphorylation assay
[6] = target: Hepatocyte growth factor receptor (Homo sapiens) (UniProt P08581); test: Inhibition of human MET cytoplasmic domain expressed in baculovirus assessed as substrate phosphorylation using fluorescence-labelled peptides as substrate at 0.06 uM after 90 mins by microfluidic peptide phosphorylation assay
[7] = target: Ribosomal protein S6 kinase alpha-2 (Homo sapiens) (UniProt Q15349); test: Inhibition of human full length RSK3 expressed in baculovirus assessed as substrate phosphorylation using fluorescence-labelled peptides as substrate at 0.1 uM after 90 mins by microfluidic peptide phosphorylation assay
Ribosomal protein S6 kinase alpha-2 (Homo sapiens), sequence (Q15349 whole entry): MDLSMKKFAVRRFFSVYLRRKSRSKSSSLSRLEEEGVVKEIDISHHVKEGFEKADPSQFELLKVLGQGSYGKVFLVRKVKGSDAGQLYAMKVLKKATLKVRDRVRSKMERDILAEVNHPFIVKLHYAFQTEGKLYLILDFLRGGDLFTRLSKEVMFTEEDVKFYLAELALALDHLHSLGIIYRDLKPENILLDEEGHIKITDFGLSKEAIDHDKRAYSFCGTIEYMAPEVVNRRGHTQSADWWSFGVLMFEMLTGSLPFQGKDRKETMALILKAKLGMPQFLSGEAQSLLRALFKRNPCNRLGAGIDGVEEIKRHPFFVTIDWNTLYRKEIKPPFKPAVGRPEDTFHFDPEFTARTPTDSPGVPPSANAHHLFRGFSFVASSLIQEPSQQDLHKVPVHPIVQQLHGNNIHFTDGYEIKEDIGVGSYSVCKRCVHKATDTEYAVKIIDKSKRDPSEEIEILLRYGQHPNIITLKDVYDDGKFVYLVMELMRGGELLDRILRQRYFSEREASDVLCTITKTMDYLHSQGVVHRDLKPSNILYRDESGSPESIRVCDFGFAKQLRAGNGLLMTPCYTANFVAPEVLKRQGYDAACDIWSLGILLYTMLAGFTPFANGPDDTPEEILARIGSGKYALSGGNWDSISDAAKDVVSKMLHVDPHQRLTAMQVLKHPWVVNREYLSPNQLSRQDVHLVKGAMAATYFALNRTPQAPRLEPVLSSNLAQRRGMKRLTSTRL

Serine/threonine-protein kinase PAK 2 (Homo sapiens), sequence (Q13177 whole entry, the tested form may be a part): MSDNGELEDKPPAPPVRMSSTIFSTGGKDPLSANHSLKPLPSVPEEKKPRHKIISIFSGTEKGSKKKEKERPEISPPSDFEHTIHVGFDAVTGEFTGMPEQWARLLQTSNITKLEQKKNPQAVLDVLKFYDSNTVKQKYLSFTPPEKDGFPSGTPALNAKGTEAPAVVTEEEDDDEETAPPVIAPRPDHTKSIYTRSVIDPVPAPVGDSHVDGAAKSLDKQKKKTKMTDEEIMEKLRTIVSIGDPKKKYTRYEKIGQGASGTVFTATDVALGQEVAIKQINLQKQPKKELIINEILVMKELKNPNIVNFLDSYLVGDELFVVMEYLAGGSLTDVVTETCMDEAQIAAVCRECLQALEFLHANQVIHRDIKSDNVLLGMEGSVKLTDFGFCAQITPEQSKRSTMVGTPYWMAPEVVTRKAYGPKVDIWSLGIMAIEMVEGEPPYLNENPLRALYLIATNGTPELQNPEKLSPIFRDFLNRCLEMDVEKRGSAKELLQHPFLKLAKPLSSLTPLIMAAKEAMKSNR
Hepatocyte growth factor receptor (Homo sapiens), sequence (P08581 whole entry, the tested form may be a part): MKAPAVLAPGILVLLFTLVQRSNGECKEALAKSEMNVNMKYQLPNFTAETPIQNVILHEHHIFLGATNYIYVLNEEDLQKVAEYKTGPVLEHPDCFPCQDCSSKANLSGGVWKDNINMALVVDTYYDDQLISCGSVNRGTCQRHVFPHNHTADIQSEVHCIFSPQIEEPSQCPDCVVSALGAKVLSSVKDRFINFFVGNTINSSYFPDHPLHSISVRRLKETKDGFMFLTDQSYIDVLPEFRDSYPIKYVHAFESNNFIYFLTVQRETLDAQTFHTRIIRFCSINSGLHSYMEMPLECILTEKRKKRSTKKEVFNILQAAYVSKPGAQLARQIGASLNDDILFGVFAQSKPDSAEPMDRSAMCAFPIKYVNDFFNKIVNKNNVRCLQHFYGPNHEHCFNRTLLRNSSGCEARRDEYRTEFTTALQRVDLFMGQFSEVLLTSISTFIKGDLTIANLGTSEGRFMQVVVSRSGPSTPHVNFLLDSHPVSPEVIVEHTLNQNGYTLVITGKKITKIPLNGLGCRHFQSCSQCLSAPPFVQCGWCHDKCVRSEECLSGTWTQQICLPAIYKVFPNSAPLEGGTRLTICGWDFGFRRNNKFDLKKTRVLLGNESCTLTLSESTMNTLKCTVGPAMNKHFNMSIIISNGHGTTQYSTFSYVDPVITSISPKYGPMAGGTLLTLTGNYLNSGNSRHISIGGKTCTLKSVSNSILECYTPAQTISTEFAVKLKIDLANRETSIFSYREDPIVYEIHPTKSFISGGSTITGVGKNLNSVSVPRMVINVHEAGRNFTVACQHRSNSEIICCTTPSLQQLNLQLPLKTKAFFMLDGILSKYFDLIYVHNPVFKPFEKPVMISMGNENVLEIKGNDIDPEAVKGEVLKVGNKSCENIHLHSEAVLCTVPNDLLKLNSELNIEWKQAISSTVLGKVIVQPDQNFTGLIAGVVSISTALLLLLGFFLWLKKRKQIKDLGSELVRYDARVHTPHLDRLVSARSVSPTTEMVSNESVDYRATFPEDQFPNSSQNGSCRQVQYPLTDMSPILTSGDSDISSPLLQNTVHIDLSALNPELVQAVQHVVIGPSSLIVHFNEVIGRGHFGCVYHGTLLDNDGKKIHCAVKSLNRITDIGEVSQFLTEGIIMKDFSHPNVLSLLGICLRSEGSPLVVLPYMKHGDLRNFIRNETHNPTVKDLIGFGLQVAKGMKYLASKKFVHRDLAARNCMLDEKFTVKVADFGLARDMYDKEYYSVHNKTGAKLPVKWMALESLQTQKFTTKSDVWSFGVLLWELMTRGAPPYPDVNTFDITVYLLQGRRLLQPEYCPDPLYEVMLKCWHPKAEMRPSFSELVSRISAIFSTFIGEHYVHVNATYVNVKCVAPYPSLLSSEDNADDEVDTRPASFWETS
Mitogen-activated protein kinase kinase kinase kinase 4 (Homo sapiens), sequence (O95819 2-1239 limits assumed): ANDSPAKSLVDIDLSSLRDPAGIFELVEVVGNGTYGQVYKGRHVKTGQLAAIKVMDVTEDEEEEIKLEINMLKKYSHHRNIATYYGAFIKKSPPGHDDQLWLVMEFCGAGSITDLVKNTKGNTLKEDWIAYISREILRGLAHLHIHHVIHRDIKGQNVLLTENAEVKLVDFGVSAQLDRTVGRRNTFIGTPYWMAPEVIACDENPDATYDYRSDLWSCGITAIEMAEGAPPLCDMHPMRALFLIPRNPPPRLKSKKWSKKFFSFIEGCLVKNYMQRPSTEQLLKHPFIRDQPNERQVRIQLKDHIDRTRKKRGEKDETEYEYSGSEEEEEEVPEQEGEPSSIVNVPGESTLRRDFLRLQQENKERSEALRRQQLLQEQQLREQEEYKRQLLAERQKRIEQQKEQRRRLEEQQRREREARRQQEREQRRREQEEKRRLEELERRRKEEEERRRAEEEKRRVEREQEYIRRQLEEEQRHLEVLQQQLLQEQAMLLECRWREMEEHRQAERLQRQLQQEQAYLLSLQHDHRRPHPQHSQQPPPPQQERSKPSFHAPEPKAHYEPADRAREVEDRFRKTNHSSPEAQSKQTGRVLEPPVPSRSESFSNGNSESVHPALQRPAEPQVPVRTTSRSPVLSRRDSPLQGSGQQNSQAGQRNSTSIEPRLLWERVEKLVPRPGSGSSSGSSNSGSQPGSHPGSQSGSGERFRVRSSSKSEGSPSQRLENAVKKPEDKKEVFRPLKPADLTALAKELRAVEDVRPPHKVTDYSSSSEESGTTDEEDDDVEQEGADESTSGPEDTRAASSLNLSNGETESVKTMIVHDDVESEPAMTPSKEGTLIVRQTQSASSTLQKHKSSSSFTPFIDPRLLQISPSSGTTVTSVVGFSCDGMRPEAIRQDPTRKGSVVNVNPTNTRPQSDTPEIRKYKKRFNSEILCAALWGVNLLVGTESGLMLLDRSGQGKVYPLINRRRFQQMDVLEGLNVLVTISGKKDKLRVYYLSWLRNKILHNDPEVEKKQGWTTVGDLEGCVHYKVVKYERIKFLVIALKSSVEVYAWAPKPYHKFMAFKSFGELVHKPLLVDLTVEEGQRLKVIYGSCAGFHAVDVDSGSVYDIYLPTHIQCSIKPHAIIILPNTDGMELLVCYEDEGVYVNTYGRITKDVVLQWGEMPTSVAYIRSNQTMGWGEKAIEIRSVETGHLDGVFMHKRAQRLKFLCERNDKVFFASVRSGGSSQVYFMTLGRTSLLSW

## Clc1ccc(C2(c3ccc(-c4ncnc5[nH]cnc45)cc3)CCNCC2)cc1
[1]
  inhibition: 49%

## c1cnc2[nH]ccc2c1
[2]
  inhibition: 52%
[3]
  inhibition: 13.5%

## NC1(Cc2ccc(Cl)cc2)CCN(c2ncnc3[nH]ccc23)CC1
[4]
  inhibition: 0%
[5]
  inhibition: 1%
[6]
  inhibition: 0%

## C[C@H](CN(C)C)Oc1nc(Nc2cc3cccc(Cl)c3cn2)cnc1C#N
[7]
  inhibition: 60.5%
